Assay results published in patent publication US12521393B2, “Cytotoxicity targeting chimeras for CCR2-expressing cells” (GLAXOSMITHKLINE INTELLECTUAL PROPERTY DEVELOPMENT LIMITED, priority 2021, dated 2026).

Columns and labels:
[1] = target: human alpha1 nicotinic acetylcholine (nACh) receptor (Homo sapiens, UniProt P02708); test: Nicotinic acetylcholine receptor antagonism assay, IONFlux automated patch clamp (Example 203); format: cell-based; details: for IC50: antagonism of ACh-stimulated human alpha1 nAChR current, patch clamp; for Emax at 100 µM: maximum percentage antagonism at maximum concentration tested 100 μM; for Emax at 10 µM: maximum percentage antagonism at maximum concentration tested 10 μM
Sequence of human alpha1 nicotinic acetylcholine (nACh) receptor (P02708 21-457): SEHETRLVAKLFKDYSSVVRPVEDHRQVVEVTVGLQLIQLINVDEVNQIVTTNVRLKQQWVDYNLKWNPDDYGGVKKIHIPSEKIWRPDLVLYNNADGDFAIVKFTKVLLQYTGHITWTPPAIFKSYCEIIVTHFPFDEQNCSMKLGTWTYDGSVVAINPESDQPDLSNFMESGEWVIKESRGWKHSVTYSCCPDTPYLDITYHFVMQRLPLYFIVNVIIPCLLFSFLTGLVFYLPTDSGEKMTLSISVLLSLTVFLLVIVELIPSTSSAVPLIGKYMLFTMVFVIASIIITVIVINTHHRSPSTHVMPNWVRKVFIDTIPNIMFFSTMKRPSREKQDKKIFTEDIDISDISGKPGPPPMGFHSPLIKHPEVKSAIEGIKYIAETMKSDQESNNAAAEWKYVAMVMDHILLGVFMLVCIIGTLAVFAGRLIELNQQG
Sequence of human alpha1 nicotinic acetylcholine (nACh) receptor (P11230 24-501 partner): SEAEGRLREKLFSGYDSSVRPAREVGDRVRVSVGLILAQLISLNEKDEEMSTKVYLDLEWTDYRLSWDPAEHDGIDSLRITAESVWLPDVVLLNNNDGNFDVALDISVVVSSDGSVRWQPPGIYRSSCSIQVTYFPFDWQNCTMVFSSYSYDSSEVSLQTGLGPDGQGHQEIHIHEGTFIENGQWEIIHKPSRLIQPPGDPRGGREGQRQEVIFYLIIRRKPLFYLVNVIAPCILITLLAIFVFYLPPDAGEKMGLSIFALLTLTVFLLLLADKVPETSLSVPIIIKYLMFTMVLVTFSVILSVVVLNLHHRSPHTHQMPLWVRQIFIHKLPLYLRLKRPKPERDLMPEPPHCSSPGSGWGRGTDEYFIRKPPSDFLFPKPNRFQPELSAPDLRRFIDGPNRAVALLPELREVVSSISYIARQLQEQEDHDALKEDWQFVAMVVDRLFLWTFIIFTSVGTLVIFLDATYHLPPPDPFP
Sequence of human alpha1 nicotinic acetylcholine (nACh) receptor (Q07001 22-517 partner): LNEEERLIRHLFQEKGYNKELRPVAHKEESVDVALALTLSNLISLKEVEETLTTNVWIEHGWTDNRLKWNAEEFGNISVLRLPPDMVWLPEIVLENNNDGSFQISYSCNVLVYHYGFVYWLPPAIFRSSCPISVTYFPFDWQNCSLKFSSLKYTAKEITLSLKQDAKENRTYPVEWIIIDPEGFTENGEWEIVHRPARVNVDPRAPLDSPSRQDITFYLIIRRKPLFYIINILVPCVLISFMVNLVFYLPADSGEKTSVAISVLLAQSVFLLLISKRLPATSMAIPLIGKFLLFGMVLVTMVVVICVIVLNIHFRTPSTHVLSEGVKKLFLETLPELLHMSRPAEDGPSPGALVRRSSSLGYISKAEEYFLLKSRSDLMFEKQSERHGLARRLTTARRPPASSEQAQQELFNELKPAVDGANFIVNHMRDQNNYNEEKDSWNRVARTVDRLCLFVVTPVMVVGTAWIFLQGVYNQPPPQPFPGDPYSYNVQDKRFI
How it was run: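 Cells expressing human α1 nAChR were incubated with a compound dose response (top 10 μM or 100 μM), then stimulated with ACh (10 mM), and peak current was read by automated patch clamp. % inhibition was taken against ACh-alone control, corrected for vehicle and run-down, and fit non-linearly for IC50; runs were averaged.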

[2] = target: anti-cotinine antibody (SEQ ID NO: 11/12, rabbit variable region with human IgG1 Fc DE mutation); test: SPR binding of anti-cotinine antibody to ARM compounds, Biacore T200, 37° C. (Example 202); details: SPR Biacore T200, 37° C., pH 7.4, antibody SEQ ID NO: 11/12 captured on protein A; Kd in molar
How it was run: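 Antibody captured on a protein A chip; ARM compounds injected at 100 μL/min (200 s association, 2000 s dissociation), 3-fold 5-point series from 200 nM, at 37 °C in HEPES pH 7.4 buffer with 0.005% P20 and 1% DMSO. Double-referenced sensorgrams fit 1:1 for kon, koff, Kd (koff/kon), residence time (1/koff); pKd averaged across runs.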

[3] = system: CCR2 expressing cells (CD11b+Ly6c+Hi) in peripheral blood; test: In vivo depletion assay, flow cytometry of peripheral blood (Example 201); set-up: species or system human CCR2 knock-in mice (C57 background); details: hCCR2 knock-in mice, IV 0.1 mpk compound + 10 mpk anti-cotinine antibody (SEQ ID NO: 13/14), peripheral blood at 48 hr
How it was run: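 Mice dosed with compound formulated in saline/DMSO/PBS, with anti-cotinine antibody (rabbit variable region, mouse IgG2a Fc) where required, pre-incubated 30 min at room temperature. Terminal peripheral blood RBC-lysed, Fc-blocked, stained for CD45, CD3, CD11b, Ly6C, human CCR2 and 7AAD; percent depletion of CD11b+Ly6c+Hi cells determined by flow cytometry.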

Row | Structure (SMILES) | IC50 [1] [µM] | Emax at 11.11 µM ([1]; maximum percentage antagonism at maximum concentration tested 11.11 μM, read-out: Maximum Response) [%] | pKd of Antibody for ARM Compound of Formula (I) [2] | % Depletion of CCR2 expressing cells [3] [%] | Emax at 30 µM ([1]; maximum percentage antagonism at maximum concentration tested 30 μM, read-out: Maximum Response) [%] | Emax at 100 µM ([1]; read-out: Maximum Response) [%] | Emax at 10 µM ([1]; read-out: Maximum Response) [%]
1 | CC(C)N(C)[C@@H]1CC[C@H](N2CC[C@H](Nc3ncnc4ccc(C(F)(F)F)cc34)C2=O)[C@H](NC(=O)[C@H]2CC[C@H](NC(=O)CCOC[C@H]3CC[C@H](COCCNC(=O)[C@H]4CC(=O)N(C)[C@@H]4c4cccnc4)CC3)CC2)C1 [Example 53, (2S,3S)-N-(2-(((1R,4S)-4-((3-(((1R,4R)-4-(((1R,2S,5R)-5-(Isopropyl(methyl)amino)-2-((S)-2-oxo-3-((6-(trifluoromethyl)quinazolin-4-yl)amino)pyrrolidin-1-yl)cyclohexyl)carbamoyl)cyclohexyl)amino)-3-oxopropoxy)methyl)cyclohexyl)methoxy)ethyl)-1-methyl-5-oxo-2-(pyridin-3-yl)pyrrolidine-3-carboxamide] | ≥ 11.1 | 10 | 9.531 | 68.42 | – | – | –
2 | CC(C)N(C)[C@@H]1CC[C@H](N2CC[C@H](Nc3ncnc4ccc(C(F)(F)F)cc34)C2=O)[C@H](NC(=O)[C@H]2CC[C@H](NC(=O)CCCOC[C@H]3CC[C@@H](COCCNC(=O)[C@H]4CC(=O)N(C)[C@@H]4c4cccnc4)CC3)CC2)C1 [Example 57, (2S,3S)-N-(2-(((1S,4R)-4-((4-(((1R,4R)-4-(((1R,2S,5R)-5-(Isopropyl(methyl)amino)-2-((S)-2-oxo-3-((6-(trifluoromethyl)quinazolin-4-yl)amino)pyrrolidin-1-yl)cyclohexyl)carbamoyl)cyclohexyl)amino)-4-oxobutoxy)methyl)cyclohexyl)methoxy)ethyl)-1-methyl-5-oxo-2-(pyridin-3-yl)pyrrolidine-3-carboxamide] | ≥ 30 | – | 9.685 | 77 | 47.6 | – | –
3 | CC(C)N(C)[C@@H]1CC[C@H](N2CC[C@H](Nc3ncnc4ccc(C(F)(F)F)cc34)C2=O)[C@H](NC(=O)[C@H]2C[C@@H](NC(=O)CCOCCOCCOCCNC(=O)[C@H]3CC(=O)N(C)[C@@H]3c3cccnc3)C2)C1 [Example 24, (2S,3S)-N-(2-(2-(2-(3-(((1S,3s)-3-(((1R,2S,5R)-5-(Isopropyl(methyl)amino)-2-((S)-2-oxo-3-((6-(trifluoromethyl)quinazolin-4-yl)amino)pyrrolidin-1-yl)cyclohexyl)carbamoyl)cyclobutyl)amino)-3-oxopropoxy)ethoxy)ethoxy)ethyl)-1-methyl-5-oxo-2-(pyridin-3-yl)pyrrolidine-3-carboxamide] | 85.3 | – | 9.4425 | 89.47 | – | 59.5 | –
4 | CC(C)N(C)[C@@H]1CC[C@H](N2CC[C@H](Nc3ncnc4ccc(C(F)(F)F)cc34)C2=O)[C@H](NC(=O)C2CCC(NC(=O)CCOCCNC(=O)CCOCCNC(=O)[C@H]3CC(=O)N(C)[C@@H]3c3cccnc3)CC2)C1 (stereo partly drawn) [Example 48, (2S,3S)-N-(2-(3-((2-(3-(((1R,4r)-4-(((1R,2S,5R)-5-(Isopropyl(methyl)amino)-2-((S)-2-oxo-3-((6-(trifluoromethyl)quinazolin-4-yl)amino)pyrrolidin-1-yl)cyclohexyl)carbamoyl)cyclohexyl)amino)-3-oxopropoxy)ethyl)amino)-3-oxopropoxy)ethyl)-1-methyl-5-oxo-2-(pyridin-3-yl)pyrrolidine-3-carboxamide] | 31.8 | – | 8.975 | 89 | – | 77 | –
5 | CC(C)N(C)[C@@H]1CC[C@H](N2CC[C@H](Nc3ncnc4ccc(C(F)(F)F)cc34)C2=O)[C@H](NC(=O)[C@H]2CC[C@H](NC(=O)CCCC(=O)NCCCOCCCNC(=O)[C@H]3CC(=O)N(C)[C@@H]3c3cccnc3)CC2)C1 [Example 19, N1-((1R,4r)-4-(((1R,2S,5R)-5-(Isopropyl(methyl)amino)-2-((S)-2-oxo-3-((6-(trifluoromethyl)quinazolin-4-yl)amino)pyrrolidin-1-yl)cyclohexyl)carbamoyl)cyclohexyl)-N5-(3-(3-((2S,3S)-1-methyl-5-oxo-2-(pyridin-3-yl)pyrrolidine-3-carboxamido)propoxy)propyl)glutaramide] | ≥ 100 | – | 9.19 | 59 | – | 34.2 | –
6 | CC(C)N(C)[C@@H]1CC[C@H](N2CC[C@H](Nc3ncnc4ccc(C(F)(F)F)cc34)C2=O)[C@H](NC(=O)[C@H]2CC[C@@H](NC(=O)CCCOCCCCOCCNC(=O)[C@H]3CC(=O)N(C)[C@@H]3c3cccnc3)CC2)C1 [Example 122, (2S,3S)-N-(2-(4-(4-(((1S,4s)-4-(((1R,2S,5R)-5-(Isopropyl(methyl)amino)-2-((S)-2-oxo-3-((6-(trifluoromethyl)quinazolin-4-yl)amino)pyrrolidin-1-yl)cyclohexyl)carbamoyl)cyclohexyl)amino)-4-oxobutoxy)butoxy)ethyl)-1-methyl-5-oxo-2-(pyridin-3-yl)pyrrolidine-3-carboxamide] | ≥ 10 | – | 9.146 | 94 | – | – | 23
7 | CC(C)N(C)[C@@H]1CC[C@H](N2CC[C@H](Nc3ncnc4ccc(C(F)(F)F)cc34)C2=O)[C@H](NC(=O)[C@H]2CC[C@H](NC(=O)CCCO[C@H]3CC[C@H](OCCNC(=O)[C@H]4CC(=O)N(C)[C@@H]4c4cccnc4)CC3)CC2)C1 [Example 1, (2S,3S)-N-(2-(((1R,4S)-4-(4-(((1R,4R)-4-(((1R,2S,5R)-5-(Isopropyl(methyl)amino)-2-((S)-2-oxo-3-((6-(trifluoromethyl)quinazolin-4-yl)amino)pyrrolidin-1-yl)cyclohexyl)carbamoyl)cyclohexyl)amino)-4-oxobutoxy)cyclohexyl)oxy)ethyl)-1-methyl-5-oxo-2-(pyridin-3-yl)pyrrolidine-3-carboxamide] | 84.6 | – | 9.654 | 88.5 | – | 25.6 | –
8 | CCN1C(=O)C[C@H](C(=O)NCCOCCOCCOCCC(=O)N[C@H]2CC[C@@H](C(=O)N[C@@H]3C[C@H](N(C)C(C)C)CC[C@@H]3N3CC[C@H](Nc4ncnc5ccc(C(F)(F)F)cc45)C3=O)CC2)[C@H]1c1cccnc1 [Example 34, (2S,3S)-1-ethyl-N-(2-(2-(2-(3-((cis-4-(((1R,2S,5R)-5-(isopropyl(methyl)amino)-2-((S)-2-oxo-3-((6-(trifluoromethyl)quinazolin-4-yl)amino)pyrrolidin-1-yl)cyclohexyl)carbamoyl)cyclohexyl)amino)-3-oxopropoxy)ethoxy)ethoxy)ethyl)-5-oxo-2-(pyridin-3-yl)pyrrolidine-3-carboxamide] | 28.5 | – | 9.933 | 95 | – | 79.2 | –
9 | CC(C)N(C)[C@@H]1CC[C@H](N2CC[C@H](Nc3ncnc4ccc(C(F)(F)F)cc34)C2=O)[C@H](NC(=O)CCOCCOCCOCCOCCOCCNC(=O)[C@H]2CC(=O)N(C)[C@@H]2c2cccnc2)C1 [Example 40, (2S,3S)-N-(18-(((1R,2S,5R)-5-(Isopropyl(methyl)amino)-2-((S)-2-oxo-3-((6-(trifluoromethyl)quinazolin-4-yl)amino)pyrrolidin-1-yl)cyclohexyl)amino)-18-oxo-3,6,9,12,15-pentaoxaoctadecyl)-1-methyl-5-oxo-2-(pyridin-3-yl)pyrrolidine-3-carboxamide] | ≥ 10 | – | 9.4525 | – | – | – | 24.7
10 | CC(C)N(C)[C@@H]1CC[C@H](N2CC[C@H](Nc3ncnc4ccc(C(F)(F)F)cc34)C2=O)[C@H](NC2CCN(C(=O)CCOCCOCCOCCOCCNC(=O)[C@H]3CC(=O)N(C)[C@@H]3c3cccnc3)CC2)C1 [Example 69, (2S,3S)-N-(15-(4-(((1R,2S,5R)-5-(Isopropyl(methyl)amino)-2-((S)-2-oxo-3-((6-(trifluoromethyl)quinazolin-4-yl)amino)pyrrolidin-1-yl)cyclohexyl)amino)piperidin-1-yl)-15-oxo-3,6,9,12-tetraoxapentadecyl)-1-methyl-5-oxo-2-(pyridin-3-yl)pyrrolidine-3-carboxamide] | – | – | 9.321 | 98.59 | – | – | –
11 | CC(C)N(C)[C@@H]1CC[C@H](N2CC[C@H](Nc3ncnc4ccc(C(F)(F)F)cc34)C2=O)[C@H](NC(=O)CCOCCOCCOCCOCCOCCOCCNC(=O)[C@H]2CC(=O)N(C)[C@@H]2c2cccnc2)C1 [Example 41, (2S,3S)-N-(21-(((1R,2S,5R)-5-(isopropyl(methyl)amino)-2-((S)-2-oxo-3-((6-(trifluoromethyl)quinazolin-4-yl)amino)pyrrolidin-1-yl)cyclohexyl)amino)-21-oxo-3,6,9,12,15,18-hexaoxahenicosyl)-1-methyl-5-oxo-2-(pyridin-3-yl)pyrrolidine-3-carboxamide] | ≥ 10 | – | 9.3615 | – | – | – | 20.1
